Data reported in publication PMC5874820 (Pharmaceutics, 2018).
Read-outs that look alike come from different tables or passages of the source.

Tests used:
PANC-1 xenograft tumor = experiment: In vivo PANC-1 tumor growth xenograft model; parameters: species or system female athymic nude mice; settings: for percentage of inhibition of tumor growth: Panc-1 xenograft in nude mice
Method: The PANC-1 cells derived from human pancreatic carcinoma of ductal cell origin were obtained from National Center for Cell Science, Pune, India. The cells were cultured in Dulbecco's modified medium (DMEM) supplemented with 10% v/v fetal bovine serum (FBS), 1% penicillin, and 1% streptomycin. Cultures (Figure S1, Supplementary Materials) were maintained at 37 °C in a humidified atmosphere with 5% CO2. Female athymic nude mice were obtained from the National Centre for Laboratory Animal Sciences (NCLAS), National Institute of Nutrition (ICMR), Hyderabad, India and were selected after careful initial screening for any external signs of disease or injuries. They were housed in individual cages in the conventional animal facilities of NCLAS, a registered facility with Committee for the Purpose of Control and Supervision of Experimentation on Animals (CPCSEA) (154/1999), Government of India. The environmental conditions were kept at 21 ± 2 °C, with 10-15 air changes per hour and relative humidity of 50-55 percent with 12 h light/dark cycle water. Animals were quarantined for 4 days and all the animals had free access to sterile formulated feed pellets and filtered potable clean water. PANC-1 cells (1 × 10^6) using matrigel were injected subcutaneously into the flanks of mice (Figure S2, Supplementary Materials). […] Each mouse was administered orally (p.o.) every day with either control vehicle (CMC), CUR (50 mg/kg), ART (50 mg/kg), CUR-ART (50 and 100 mg/kg) and Doxorubicin (2 mg/kg) by intravenous (i.v.) route. […] At the same time, the body weight of each animal was measured. At the end of the experiment (4 weeks after cell inoculation), the animals were euthanized by CO2 and sacrificed. Tumors from each animal were removed and measured. Each value represents mean ± SD (Standard Deviation). The control and experimental animal groups were compared by paired t-test. **** p < 0.0001 was considered significant.

[1] = parameters: method as in doi:10.1039/C4RA11935E; settings: curcumin (crystalline), oral dose of 200 mg/kg, male SD rats; cited from earlier work
[2] = Pharmacokinetic study, oral gavage, curcumin in plasma by HPLC; settings: oral administration, SD rats
Method: Sprague-Dawley rats (200 ± 50 g) were obtained from Sainath Agencies Limited (Hyderabad, India). Animals were acclimatized for 1 week prior to experimentation in a temperature-controlled, 12/12 h light/dark room, and were allowed standard laboratory food and water. The rats were fasted overnight (~18 h) with free access to water before the experiment.
All compounds (200 mg/kg) were suspended in 1% sodium carboxymethylcellulose (CMC) separately and administered by oral gavage. Blood (0.4 mL) was withdrawn from retro-orbital plexus into lithium heparin tube at the following times after drug administration: 30, 45, 60, 90, 120, 180, 240, 360, 480 and 720 min. […]
Curcumin Plasma concentrations of CUR were analyzed by HPLC (Shimadzu, Mumbai, India). The area under the curve (AUC) for serum concentration versus time plots was calculated by linear trapezoidal rate. […]
The HPLC analyses were performed using a Shimadzu Prominence model LC-20AD equipped with 20 mL injection loop, and a photodiode array detector and CUR detected at 420 nm. […]
The standard curve was calculated by a linear relationship between concentration and area with regression factor R = 0.999. The Area under the curve (AUC) for serum concentration vs. Time plots was calculated by the linear trapezoidal rule. […]

[3] = parameters: method as in PMID 17999464, PMID 1529022; settings: cited from earlier work
[4] = Supersaturation study in SGF and SIF (without enzyme), UV at 420 nm; type: physicochemical; settings: 100 µg/mL CUR, 30 °C
Method: Supersaturation of CUR and CUR-ART were measured in SGF and SIF (without enzyme) medium at 30 °C. The supersaturated solution (CUR 100 µg/mL dissolved in 5 mL of SGF/SIF fluid) was stirred at 800 rpm using a magnetic stirrer at 30 °C. After regular intervals of time 2, 4, 6, 12 and 24 h the solution concentration of curcumin was determined at 420 nm maxima on a Thermo Scientific Evolution 300 UV-Vis spectrometer (Thermo Scientific, Waltham, MA, USA).

[5] = cited from earlier work
[6] = pure curcumin, reference not given

| Molecule | percentage of inhibition of tumor growth (PANC-1 xenograft tumor; 50 mg/kg p.o. daily) [%] | plasma concentration by HPLC [1] | detectable curcumin levels in the serum [2] | aqueous solubility [3] [µg/mL] | precipitation / residence time of solubilized CUR [4] | detection by HPLC at higher dosage levels ([5]; dosage >1 g/kg, ref recent reports) | half-life ([5]; pure curcumin in crystalline form, reference not given) [min] | half-life [5, 6] [min] | time in which it decomposes [5, 6] | percentage of inhibition of tumor growth (PANC-1 xenograft tumor; 2 mg/kg i.v. daily) [%] | effect on tumor size compared to other solids and controls (PANC-1 xenograft tumor; p < 0.0001, Panc-1 xenograft in nude mice) |
| --- | --- | --- | --- | --- | --- | --- | --- | --- | --- | --- | --- |
| C[C@@H]1CC[C@H]2[C@@H](C)C(=O)O[C@@H]3O[C@@]4(C)CC[C@@H]1[C@]32OO4 [ART, Artemisinin] | 29.22 | – | – | – | – | – | – | – | – | – | – |
| Curcumin | 41.23 | no plasma concentration for curcumin (crystalline) could be detected | did not show any detectable levels | 7.8 | precipitated faster than CUR-ART | could not be detected | 45 to 60 | < 60 | less than 1 h | – | – |
| COc1cccc2c1C(=O)c1c(O)c3c(c(O)c1C2=O)C[C@@](O)(C(=O)CO)C[C@@H]3O[C@H]1C[C@H](N)[C@H](O)[C@H](C)O1 [doxorubicin] | – | – | – | – | – | – | – | – | – | 69.97 | decreased tumor size significantly |
